Columns and labels:
Assay type in all cases: in vivo
[1] = test system: Pseudomonas syringae PstDC3000; experiment: Induced resistance of Arabidopsis thaliana to Pseudomonas syringae infection; details: for disease index / number of bacteria in the leaves, CFU (mg) / number of bacteria in the leaves, CFU/mg: 3 days after inoculation; for decrease of the number of bacteria per milligram of leaves: compared with blank control
Protocol: 2-amino-3-phenylbutyric acid was dissolved in sterile water and then gradiently diluted with sterile water into solutions of 100 nM, 1,000 nM, and 10,000 nM, and a blank control was set up, while 0.02% Tween 20 was added as surfactant. The Pseudomonas syringae PstDC3000 was coated on the LB plate and cultured at 28° C. for 48 hours. Single colonies were picked and inoculated into a 50 mL centrifuge tube containing 2 mL of medium, cultured at 28° C. on a shaker at 250 rpm. The change of OD600 value of the bacterial solution was monitored every 1-2 hours until it reached 0.8, and the culture of the bacteria was stopped. 1 mL of the bacterial solution was transferred into a 1.5 mL sterile centrifuge tube and centrifuged at 8,000 rpm for 2 min to collect the precipitate. The supernatant was removed, and the precipitate was washed 3 times with 10 mM magnesium chloride and centrifuged, and finally the PstDC3000 was resuspended in 10 mM magnesium chloride to reach an OD600 value of […] for later use. The Arabidopsis thaliana seeds were soaked in 75% alcohol for 3 min, then washed 4 times with sterile water and planted in a Petri dish containing ½ MS medium. Twelve seeds were planted in each petri dish, and ½ MS petri dishes with seeds were vernalized at 4° C. for 3 d to break dormancy and then placed in a culture room at 22° C. with a light intensity of 100 μE m^−2s^−1 (16 h light/8 h darkness). When the seedlings grew for 2 weeks, the 2-amino-3-phenylbutyric acid solutions at different concentrations were slowly poured into the petri dish until the whole Arabidopsis thaliana seedlings were submerged, and kept for 2-3 minutes, and then the treatment solution was poured out of the petri dish. The treatment was performed once every 24 h for a total of 2 treatments. 24 hours after the second treatment, the PstDC3000 suspension (OD600=0.01) was inoculated onto the leaves of Arabidopsis thaliana by the same submerge method. After inoculation, the petri dish was closed with a medical breathable adhesive tape and placed in the culture room for further culture. After 3 days, the number of bacteria in different treatments was determined and the incidence of Arabidopsis thaliana was observed. The disease index was calculated in the same manner as that in Example 2.
Grading standard of Disease injury caused by PstDC3000 (per leave): • Grade 0: No diseased patches on the leaves; • Grade 1: The area of diseased spots accounts for 0%-10% of the whole leaf; • Grade 2: The area of diseased spots accounts for 10%-25% of the whole leaf; • Grade 3: The area of diseased spots accounts for 25%-50% of the whole leaf; • Grade 4: The area of diseased spots accounts for 50%-75% of the whole leaf; • Grade 5: The area of diseased spots accounts for 75%-100% of the whole leaf.

[2] = test system: wheat; experiment: Induced resistance of wheat to drought stress (25% PEG-6000); details: for drought injury index (%) / dry weight (g) aboveground part / dry weight (g) underground part / fresh weight (g) aboveground part / fresh weight (g) underground part / length of root (cm): 6 days drought stress, 7 days recovery
Protocol: Wheat was hydroponic cultured in a 6-mesh sieve used as a container at 50 grains per sieve, and ½ Hoagland nutrient solution was changed every three days. When the wheat grew to the stage of two leaves and one bud, 2-amino-3-phenylbutyric acid solution was sprayed on the leaf surface, and the concentration of 2-amino-3-phenylbutyric acid was 0, 100 and 1,000 nM, and 0.02% Tween 20 was added as surfactant. After two days of continuous spraying, the hydroponic nutrient solution was replaced with ½ Hoagland nutrient solution containing 25% PEG-6000 on the 3rd day for stress treatment. After 6 days of drought stress, rehydration treatment was conducted. And after 7 days of recovery growth in normal nutrient solution, the drought injury index was observed and determined, and the root length and biomass were determined.
The performance characteristics of drought injury of leaves are similar to those of salt injury. The rate of drought injury and the drought injury index are introduced by using the evaluation indexes of salt injury. The formula for calculating the drought injury index is as follows, and the grading standard of drought injury is shown in Table 15.

[3] = test system: cotton (Sikang 1); experiment: Induced resistance of cotton to salt stress (100 mM NaCl); details: three days
Protocol: The experimental material was “Sikang 1” cotton, which was hydroponic cultured in a 500 mL plastic cup and ½ Hoagland nutrient solution was changed every three days. When the cotton seedling grew until the second true leaf fully unfolded, the leaf surface was sprayed with 2-amino-3-phenylbutyric acid solution. The concentrations used in this experiment were 0, 1, 10, 100, and 1,000 nM, and 0.02% Tween 20 was added as surfactant. The spraying was repeated once every 24 hours for a total of 2 times. On the second day after the treatment, NaCl was added to the ½ Hoagland nutrient solution to a final concentration of 100 mM to perform salt stress treatment. Each treatment was performed in triplicate. After three days of salt stress, rehydration treatment was performed, the salt injury symptoms of cotton were observed, and calculate the salt injury index was calculated. The formula is as follows: […]

In the case of `CC(CCCN)C(N)C(=O)O` (stereo not drawn) [2,6-diamino-3-methylhexanoic acid], the “decrease of the disease index” value ([1]; 100 nM) is reported as 50.96%, the disease index ([1]; 100 nM) is reported as 42.01 ± 1.36 b and the “number of bacteria in the leaves, CFU (mg)” value (from here on “number of bacteria … (mg)”) ([1]; 100 nM) is reported as 8.42 × 10^5 CFU (mg). For the same molecule, the “decrease of the number of bacteria per milligram of leaves” value (“decrease … per milligram of leaves” below) ([1]; 100 nM) was 73.93%, the “decrease of the disease index” value ([1]; 1,000 nM) was 56.15% and the disease index ([1]; 1,000 nM) was 37.57 ± 0.24 c. For the same molecule, the “number of bacteria … (mg)” value ([1]; 1,000 nM) was 5.12 × 10^5 CFU (mg), the “decrease … per milligram of leaves” value ([1]; 1,000 nM) was 84.15% and the “decrease of the disease index” value ([1]; 10,000 nM) was 76.82%. For the same molecule, the “number of the bacteria per mg leaves” value ([1]; 10,000 nM) was 1.58×10^5 per mg leaves, the “number of bacteria … (mg)” value ([1]; 10,000 nM) was 1.58 × 10^5 CFU (mg) and the “decrease … per milligram of leaves” value ([1]; 10,000 nM) was 95.11%. The “drought injury index (%)” value ([2]; 100 nM) was 40%, the “dry weight (g) aboveground part” value ([2]; 100 nM) was 0.94 ± 0.01 b g and the “dry weight (g) underground part” value ([2]; 100 nM) was 0.42 ± 0.01 b g. The “fresh weight (g) aboveground part” value ([2]; 100 nM) was 7.70 ± 0.02 b g, the “fresh weight (g) underground part” value ([2]; 100 nM) was 3.79 ± 0.01 b g and the “length of root (cm)” value ([2]; 100 nM) was 14.35 ± 0.08 b cm. For the same molecule, the “decrease of drought injury index” value ([2]; 1,000 nM) was 59%, the “increase of fresh weight of aboveground part compared with the control group” value ([2]; 1,000 nM) was 31.03% and the “increase of fresh weight of underground part compared with the control group” value ([2]; 1,000 nM) was 34.42%. For the same molecule, the “increase of root length compared with the control group” value ([2]; 1,000 nM) was 9.77%, the “drought injury index (%)” value ([2]; 1,000 nM) was 21% and the “dry weight (g) aboveground part” value ([2]; 1,000 nM) was 1.05 ± 0.01 a g. For the same molecule, the “dry weight (g) underground part” value ([2]; 1,000 nM) was 0.49 ± 0.01 a g, the “fresh weight (g) aboveground part” value ([2]; 1,000 nM) was 8.99 ± 0.01 a g and the “fresh weight (g) underground part” value ([2]; 1,000 nM) was 4.59 ± 0.03 a g. The “length of root (cm)” value ([2]; 1,000 nM) was 14.63 ± 0.12 a cm, the “mortality (%)” value ([3]; 1 nM) was 46% and the “salt injury index (%)” value ([3]; 1 nM) was 53%. For the same molecule, the “mortality (%)” value ([3]; 10 nM) was 40%, the “salt injury index (%)” value ([3]; 10 nM) was 49% and the “mortality (%)” value ([3]; 100 nM) was 27%. For the same molecule, the “salt injury index (%)” value ([3]; 100 nM) was 42%, the “mortality (%)” value ([3]; 1,000 nM) was 23% and the “salt injury index (%)” value ([3]; 1,000 nM) was 36%.

For `CC(c1ccccc1)C(N)C(=O)O` (stereo not drawn) [2-amino-3-phenylbutyric acid], the “decrease of the disease index” value ([1]; 100 nM) was 52.57%, the disease index ([1]; 100 nM) was 38.04 ± 1.04 b and the “number of bacteria in the leaves, CFU/mg” value ([1]; 100 nM) was 2.40 × 10^5 CFU/mg. The “decrease … per milligram of leaves” value ([1]; 100 nM) was 92.05%, the “decrease of the disease index” value ([1]; 1,000 nM) was 58.45% and the disease index ([1]; 1,000 nM) was 33.33 ± 4.17 c. The “number of bacteria in the leaves, CFU/mg” value ([1]; 1,000 nM) was 2.13 × 10^5 CFU/mg, the “decrease … per milligram of leaves” value ([1]; 1,000 nM) was 92.94% and the “decrease of the disease index” value ([1]; 10,000 nM) was 81.82%. The “number of the bacteria per mg leaves” value ([1]; 10,000 nM) was 1.34×10^5 per mg leaves, the “number of bacteria in the leaves, CFU/mg” value ([1]; 10,000 nM) was 1.34 × 10^5 CFU/mg and the “decrease … per milligram of leaves” value ([1]; 10,000 nM) was 95.56%. The “drought injury index (%)” value ([2]; 100 nM) was 46%, the “dry weight (g) aboveground part” value ([2]; 100 nM) was 0.87 ± 0.01 b g and the “dry weight (g) underground part” value ([2]; 100 nM) was 0.38 ± 0.01 b g. The “fresh weight (g) aboveground part” value ([2]; 100 nM) was 7.51 ± 0.24 b g, the “fresh weight (g) underground part” value ([2]; 100 nM) was 3.77 ± 0.23 b g and the “length of root (cm)” value ([2]; 100 nM) was 14.23 ± 0.12 a cm. The “decrease of drought injury index” value ([2]; 1,000 nM) was 46%, the “increase of fresh weight of aboveground part compared with the control group” value ([2]; 1,000 nM) was 46.33% and the “increase of fresh weight of underground part compared with the control group” value ([2]; 1,000 nM) was 55.14%. The “increase of root length compared with the control group” value ([2]; 1,000 nM) was 11.87%, the “drought injury index (%)” value ([2]; 1,000 nM) was 27% and the “dry weight (g) aboveground part” value ([2]; 1,000 nM) was 0.94 ± 0.05 a g. The “dry weight (g) underground part” value ([2]; 1,000 nM) was 0.43 ± 0.02 a g, the “fresh weight (g) aboveground part” value ([2]; 1,000 nM) was 8.97 ± 0.32 a g and the “fresh weight (g) underground part” value ([2]; 1,000 nM) was 4.53 ± 0.01 a g. For the same molecule, the “length of root (cm)” value ([2]; 1,000 nM) was 14.70 ± 0.37 a cm, the “mortality (%)” value ([3]; 1 nM) was 49% and the “salt injury index (%)” value ([3]; 1 nM) was 66.67%. For the same molecule, the “mortality (%)” value ([3]; 10 nM) was 46%, the “salt injury index (%)” value ([3]; 10 nM) was 55% and the “mortality (%)” value ([3]; 100 nM) was 32%. For the same molecule, the “salt injury index (%)” value ([3]; 100 nM) was 51%, the “mortality (%)” value ([3]; 1,000 nM) was 28% and the “salt injury index (%)” value ([3]; 1,000 nM) was 42%.
